Test results as given in patent US6376472B1, “Compounds having antihypertensive, cardioprotective, anti-ischemic and antilipolytic properties” (Aventis Pharmaceuticals, Inc., priority 1996, dated 2002).
One block for each compound: values may come before it.

Tests used:
lipolysis = settings: selective agonists of the A2 receptor subtype; cited from earlier work
A1 and A2 receptors = settings: selectivity of receptor affinity; cited from earlier work
A2 receptor = settings: relative to NECA; cited from earlier work

melting point: 166 to 168 °C
SMILES: COC[C@H]1C[C@@H](n2cnc3c(N[C@H]4CCN(c5ccc(C(F)(F)F)cn5)C4)ncnc32)[C@@H](O)[C@H]1O

SMILES: CCNC(=O)[C@H]1O[C@@H](n2cnc3c(N)nc(NCCc4ccc(CCC(=O)O)cc4)nc32)[C@H](O)[C@@H]1O [CGS 21680]
antilipolytic activity (lipolysis): do not exhibit antilipolytic activity

SMILES: OC[C@H]1O[C@@H](n2cnc3c(NC4CCCC4)ncnc32)[C@H](O)[C@@H]1O [CPA, Cyclopentyladenosine]
A2/A1 ratio (A1 and A2 receptors): 780

SMILES: Nc1nc(Nc2ccccc2)nc2c1ncn2[C@@H]1O[C@H](CO)[C@@H](O)[C@H]1O [CV-1808]
fold less potent than NECA in affinity for the A2 receptor (A2 receptor): 10 fold | A2/A1 ratio (A1 and A2 receptors): 0.19
